Laboratory results reported in patent publication US20120189673A1, “POLYPEPTIDES AND USES THEREOF” (priority 2009, published 2012).
“Also recorded” adds a separate entry of the source.

What was measured:
P. aeruginosa [1] = assay: FACS binding of TAMRA labeled peptide to P. aeruginosa; design: species or system Pseudomonas aeruginosa; details: 3 μM TAMRA labeled peptide in human plasma
Protocol: (§1) Flow cytometry analysis—Fifty μl of bacteria (1-2×10^6 cfu) were incubated with 450 μl of human plasma either alone or supplemented with GGL27 (at 3 μM). Samples were incubated for 30 min or 1 h at 37° C., divided into two equal parts, centrifuged, washed with PBS, and resuspended in 100 μl PBS with rabbit polyclonal antibodies against either LGE27 (25), a C-terminal epitope of human C3a, or rabbit polyclonal antibodies against C1q (both at 1:100). The mixtures were subsequently incubated for 1 h at room temperature. Bacteria were pelleted and washed twice with PBS, incubated in 100 μl PBS with goat anti rabbit IgG FITC-labeled antibodies (1:500, Sigma) for 30 min at room temperature and washed twice with PBS. In another experiment bacteria were incubated for 1 h in citrate plasma together with 3 μM TAMRA-labeled GGL27 peptide, then pelleted and washed twice with PBS. Flow cytometry analysis (Becton-Dickinson, Franklin Lakes, N.J.) was performed using a FACS-Calibur flow cytometry system equipped with a 15 mW argon laser turned a 488 nm. The bacterial population was selected by gating with appropriate settings of forward scatter (FSC) and sideward scatter (SSC).

E. coli [2] = assay: Bacterial membrane permeabilization, impermeant probe FITC (fluorescence microscopy); format: cell-based, Escherichia coli; details: 30 μM peptide
Protocol: Fluorescence microscopy. The impermeant probe FITC (Sigma-Aldrich, St. Louis, USA) was used for monitoring of bacterial membrane permeabilization. S. aureus ATCC 29213 bacteria were grown to mid-logarithmic phase in TSB medium. Bacteria were washed and resuspended in buffer (10 mM Tris, pH 7.4, 0.15M NaCl, 5 mM glucose) to yield a suspension of 1×10^7 CFU/ml. 100 μl of the bacterial suspension was incubated with 30 μM of the respective peptides at 30° C. for 30 min. Microorganisms were then immobilized on poly (L-lysine)-coated glass slides by incubation for 45 min at 30° C., followed by addition onto the slides of 200 μl of FITC (6 μg/ml) in buffer and a final incubation for 30 min at 30° C. […] Bacteria were visualized using a Nikon Eclipse TE300 (Nikon, Melville, USA) inverted fluorescence microscope equipped with a Hamamatsu C4742-95 cooled CCD camera (Hamamatsu, Bridgewater, USA) and a Plan Apochromat ×100 objective (Olympus, Orangeburg, USA). […]
Fluorescence microscopy—Fluorescein isothiocyanate (FITC; Sigma-Aldrich, St. Louis, USA) was used for monitoring of bacterial membrane permeabilization. […] Bacteria were visualized using a Nikon Eclipse TE300 (Nikon, Melville, USA) inverted fluorescence microscope equipped with a Hamamatsu C4742-95 cooled CCD camera (Hamamatsu, Bridgewater, USA) and a Plan Apochromat ×100 objective (Olympus, Orangeburg, USA). […]

E. coli [3] = assay: Complement (C1q, C5b-9/MAC, C3a) binding to E. coli in citrate plasma (immunoblot, flow cytometry); format: cell-based, Escherichia coli; details: citrate plasma with GGL27 at 3 μM
Protocol: as §1
SDS-PAGE and immunoblotting—Human citrate plasma (450 μl) was incubated with 50 μl bacteria (1-2×10^9 cfu) either alone or supplemented with the peptide GGL27 at 3 μM. The mixture was incubated for 30 min or 1 h at 37° C., centrifuged, and supernatants and bacteria collected. The bacterial pellet was washed with PBS and bound proteins eluted with 0.1 M glycine-HCl, pH 2.0. The pH of the eluted material was raised to 7.5 with 1 M Tris. Eluted proteins were precipitated by addition of 1 volume of trichloroacetic acid (TCA) to 4 volumes of sample, followed by incubation for 30 min on ice and centrifugation at 15 000 g (4° C. for 20 min). Precipitated material and supernatants were dissolved in SDS sample buffer and analyzed under reducing conditions by SDS-PAGE on 16.5% Tris-tricine gels (Clear PAGE™, C.B.S Scientific). Proteins and peptides were transferred to nitrocellulose membranes (Hybond-C). […]

P. aeruginosa [4] = assay: Complement (C1q, C5b-9/MAC, C3a) binding to P. aeruginosa in citrate plasma (immunoblot, flow cytometry); format: cell-based, Pseudomonas aeruginosa; details: citrate plasma with GGL27 at 3 μM
Protocol: as §1, with “The bacterial population was selected by gating with appropriate settings of forward scatter (FSC) and sideward scatter (SSC).” left out
SDS-PAGE and immunoblotting—Human citrate plasma (450 μl) was incubated with 50 μl bacteria (1-2×10^9 cfu) either alone or supplemented with the peptide GGL27 at 3 μM. […] Precipitated material and supernatants were dissolved in SDS sample buffer and analyzed under reducing conditions by SDS-PAGE on 16.5% Tris-tricine gels (Clear PAGE™, C.B.S Scientific). […]

[5] = system: P. aeruginosa infected mice; assay: Animal infection model, P. aeruginosa; format: in vivo, mouse; details: P. aeruginosa i.p.; GGL27 500 μg s.c. after 1 h; P<0.001
Protocol: Animal infection model—Animals were housed under standard conditions of light and temperature and had free access to standard laboratory chow and water. P. aeruginosa 15159 bacteria were grown to logarithmic phase (OD620˜0.5), harvested, washed in PBS, diluted in the same buffer to 2×10^8 cfu/ml, and kept on ice until injection. Hundred microliter of the bacterial suspension was injected intraperitoneally (i.p.) into female Balb/c mice. Sixty minutes after the bacterial injection, 0.5 mg GGL27 or buffer alone was injected subcutaneously (s.c.) into the mice. In a corresponding E. coli infection model, bacteria were grown to early logarithmic phase (OD620˜0.4), harvested, washed in PBS, diluted in the same buffer to 1×10^8 cfu/ml, and kept on ice until injection. Hundred microliter of the bacterial suspension was injected i.p. into female Balb/c mice. Thirty minutes after the bacterial injection, 0.2 mg of GGL27 peptide or buffer alone was injected i.p. Data from two independent experiments were pooled.

Row | Sequence | binding to bacteria (P. aeruginosa [1]) | permeabilization of bacterial membranes (E. coli [2]) | binding of C1q to bacteria (E. coli [3]) | formation of MAC (E. coli [3]) | generation / binding of C3a (E. coli [3]) | generation and binding of C3a-containing fragments to the bacterial surface (P. aeruginosa [4]; FACS analysis) | C1q/MAC alterations (P. aeruginosa [4]) | survival [5]
1 | GGLIKTKRKRKKQRVKIAYEEIFVKNM [GGL27, C-terminal peptide of TFPI, plasmin-generated] | avidly bound | permeabilized bacterial membranes | enhances; also recorded: enhanced binding of C1q | enhances; also recorded: increased formation of MAC | enhances; also recorded: significant generation of C3a | increased generation and binding of these C3a-containing fragments | no significant C1q/MAC alterations | prolongs survival; also recorded: prolongation of survival
2 | LIKTKRKRKKQRVKIAY [LIK17] |  | permeabilized bacterial membranes |  |  |  |  |  | 
